Data published in PubChem BioAssay AID334 (DTP/NCI, 2004).
Where “and” joins values, the source holds several entries; their conditions need not be identical. Equal values may be shown once. Toxic doses and inconclusive results are not listed. Rule for the calls: active = survival T/C of 150% or more; inactive = T/C below 125% in these data.

System: CD2F1 mice, intracerebral P388 leukemia, median survival T/C%
Experiment: NCI In Vivo Anticancer Drug Screen. Data for tumor model P388 Leukemia (intracerebral) in CD2F1 (CDF1) mice
Conditions: endpoint: median survival time, higher = longer survival
Experimental: The antitumor activity of compounds was measured in mice bearing transplantable tumors. Survival or tumor size were measured and the results are expressed as the measurement made in the treated group (T) divided by the measurement made in the vehicle treated control group (C). The tumor model used in this assay is P388 Leukemia (intracerebral) in CD2F1 (CDF1) mice

[1] = dose: 12.5 mg/kg/injection, schedule: Q01DX009 (ip), vehicle: saline
[2] = dose: 25.0 mg/kg/injection, schedule: Q01DX009 (ip), vehicle: saline
[3] = dose: 50.0 mg/kg/injection, schedule: Q01DX009 (ip), vehicle: saline
[4] = dose: 100.0 mg/kg/injection, schedule: Q01DX009 (ip), vehicle: saline
[5] = dose: 4.0 mg/kg/injection, schedule: Q01DX009 (ip), vehicle: saline with Tween-80
[6] = dose: 8.0 mg/kg/injection, schedule: Q01DX009 (ip), vehicle: saline with Tween-80
[7] = dose: 8.0 mg/kg/injection, schedule: Q01DX009 (ip), vehicle: saline
[8] = dose: 16.0 mg/kg/injection, schedule: Q01DX009 (ip), vehicle: saline with Tween-80
[9] = dose: 16.0 mg/kg/injection, schedule: Q01DX009 (ip), vehicle: saline
[10] = dose: 32.0 mg/kg/injection, schedule: Q01DX009 (ip), vehicle: saline with Tween-80
[11] = dose: 32.0 mg/kg/injection, schedule: Q01DX009 (ip), vehicle: saline

Measured: T/C

COc1ccc2cc1Oc1ccc(cc1)C[C@H]1c3cc(c(OC)cc3CCN1C)Oc1c(OC)c(OC)cc3c1[C@H](C2)N(C)CC3
inactive: dose: 50.0 mg/kg/injection, schedule: Q01DX005 (ip), vehicle: Klucel (hydroxypropylcellulose) (HPC) 105 % of control and 106 % of control | dose: 100.0 mg/kg/injection, schedule: Q01DX005 (ip), vehicle: Klucel (hydroxypropylcellulose) (HPC) 102 % of control and 105 % of control | dose: 200.0 mg/kg/injection, schedule: Q01DX005 (ip), vehicle: Klucel (hydroxypropylcellulose) (HPC) 99 % of control and 108 % of control | dose: 400.0 mg/kg/injection, schedule: Q01DX005 (ip), vehicle: Klucel (hydroxypropylcellulose) (HPC) 97 % of control and 104 % of control

CN1CC[C@]23c4c5ccc(O)c4O[C@H]2C(=O)CC[C@H]3[C@H]1C5
inactive: dose: 3.12 mg/kg/injection, schedule: Q01DX005 (iv), vehicle: saline 106 % of control | dose: 6.25 mg/kg/injection, schedule: Q01DX005 (iv), vehicle: saline 104 % of control | dose: 12.5 mg/kg/injection, schedule: Q01DX005 (iv), vehicle: saline 95 % of control

Nc1ncn(C2OC(CO)C(O)C2O)c(=O)n1 (stereo not given)
active: [1] 219 % of control | [2] 230 % of control | [3] 290 % of control | [4] 303 % of control | dose: 200.0 mg/kg/injection, schedule: Q01DX009 (ip), vehicle: saline 303 % of control

O=C1c2ccccc2C(=O)c2c(NCCNCCO)ccc(NCCNCCO)c21
inactive: dose: 4.0 mg/kg/injection, schedule: Q01DX005 (ip), vehicle: saline with Tween-80 112 % of control | [5] 109 % of control | dose: 4.0 mg/kg/injection, schedule: Q01DX009 (ip), vehicle: saline 101 % of control and 105 % of control | dose: 8.0 mg/kg/injection, schedule: Q01DX005 (ip), vehicle: saline with Tween-80 104 % of control | [6] 118 % of control and 121 % of control | [7] 91 % of control and 111 % of control | dose: 16.0 mg/kg/injection, schedule: Q01DX005 (ip), vehicle: saline with Tween-80 114 % of control | [8] 119 % of control and 108 % of control | [9] 120 % of control and 112 % of control | dose: 32.0 mg/kg/injection, schedule: Q01DX005 (ip), vehicle: saline with Tween-80 96 % of control | [10] 87 % of control and 101 % of control | [11] 90 % of control | dose: 64.0 mg/kg/injection, schedule: Q01DX009 (ip), vehicle: saline with Tween-80 98 % of control

CC(=O)N[C@@H](Cc1ccc(N(CCCl)CCCl)cc1)C(=O)ON1C(=O)CCC1=O
inactive: dose: 1.45 mg/kg/injection, schedule: Q03HX008 (ip), vehicle: saline 105 % of control | dose: 2.9 mg/kg/injection, schedule: Q03HX008 (ip), vehicle: saline 105 % of control | dose: 5.8 mg/kg/injection, schedule: Q03HX008 (ip), vehicle: saline 115 % of control

COc1ccc2c(c1OC(C)=O)-c1cc(OC(C)=O)cc3c1C(C2)N(C(=O)CN(CCCl)CCCl)CC3 (stereo not given)
inactive: dose: 1.5 mg/kg/injection, schedule: Q01DX009 (ip), vehicle: DMSO 104 % of control | dose: 3.0 mg/kg/injection, schedule: Q01DX009 (ip), vehicle: DMSO 101 % of control | dose: 6.0 mg/kg/injection, schedule: Q01DX009 (ip), vehicle: DMSO 100 % of control | dose: 12.0 mg/kg/injection, schedule: Q01DX009 (ip), vehicle: DMSO 88 % of control

CO[C@H]1C[C@@H]2CC[C@@H](C)[C@@](O)(O2)C(=O)C(=O)N2CCCC[C@H]2C(=O)O[C@H]([C@H](C)C[C@@H]2CC[C@@H](O)[C@H](OC)C2)CC(=O)[C@H](C)C=C(C)[C@@H](O)[C@@H](OC)C(=O)[C@H](C)C[C@H](C)/C=C/C=C/C=C1C
inactive: dose: 400.0 mg/kg/injection, schedule: Q01DX009 (ip), vehicle: gum acacia 107 % of control

CC1(C)N=C(N)N=C(N)N1c1ccc(OCCOc2ccc(S(=O)(=O)F)cc2)c(Cl)c1
inactive: dose: 12.5 mg/kg/injection, schedule: Q04DX003 (ip), vehicle: saline 116 % of control | dose: 25.0 mg/kg/injection, schedule: Q04DX003 (ip), vehicle: saline 100 % of control | dose: 50.0 mg/kg/injection, schedule: Q04DX003 (ip), vehicle: saline 94 % of control

CCCCCCCC/C=C/CCCCCCCC(=O)Nc1ccn(C2OC(CO)C(O)C2O)c(=O)n1 (stereo not given)
active: [1] 155 % of control | [2] 197 % of control | [3] 262 % of control

O=C1N(Cl)C(=O)C(c2ccc(Cl)cc2)(c2ccc(Cl)cc2)N1Cl
inactive: dose: 50.0 mg/kg/injection, schedule: Q01DX009 (ip), vehicle: saline with Tween-80 94 % of control | dose: 100.0 mg/kg/injection, schedule: Q01DX009 (ip), vehicle: saline with Tween-80 105 % of control | dose: 200.0 mg/kg/injection, schedule: Q01DX009 (ip), vehicle: saline with Tween-80 94 % of control

COc1cc(NCc2ccc3nc(N)nc(N)c3c2C)cc(OC)c1OC (tested in a mixture with another compound)
inactive: dose: 7.5 mg/kg/injection, schedule: Q01DX009 (ip), vehicle: water 100 % of control | dose: 15.0 mg/kg/injection, schedule: Q01DX009 (ip), vehicle: water 115 % of control | dose: 30.0 mg/kg/injection, schedule: Q01DX009 (ip), vehicle: water 117 % of control

NC(=S)N/N=C/c1ccc(O)cn1
inactive: dose: 12.0 mg/kg/injection, schedule: Q01DX005 (ip), vehicle: saline 99 % of control and 100 % of control | dose: 24.0 mg/kg/injection, schedule: Q01DX005 (ip), vehicle: saline 96 % of control and 97 % of control | dose: 48.0 mg/kg/injection, schedule: Q01DX005 (ip), vehicle: saline 101 % of control and 106 % of control | dose: 96.0 mg/kg/injection, schedule: Q01DX005 (ip), vehicle: saline 93 % of control and 103 % of control

O=NN(CCCl)C(=O)NC1CCC(=O)NC1=O (stereo not given)
active: dose: 3.0 mg/kg/injection, schedule: Q01DX009 (ip), vehicle: saline with Tween-80 221 % of control | [5] 242 % of control | dose: 6.0 mg/kg/injection, schedule: Q01DX009 (ip), vehicle: saline with Tween-80 250 % of control | dose: 8.0 mg/kg/injection, schedule: Q01DX001 (ip), vehicle: saline 156 % of control | dose: 16.0 mg/kg/injection, schedule: Q01DX001 (ip), vehicle: saline 212 % of control | dose: 32.0 mg/kg/injection, schedule: Q01DX001 (ip), vehicle: saline 262 % of control | dose: 64.0 mg/kg/injection, schedule: Q01DX001 (ip), vehicle: saline 212 % of control
inactive: dose: 4.0 mg/kg/injection, schedule: Q01DX001 (ip), vehicle: saline 114 % of control

CCCCCC(=O)O[C@]1(C(C)=O)CC[C@H]2[C@@H]3CCC4=CC(=O)CC[C@]4(C)[C@H]3CC[C@@]21C
active: [6] 535 % of control | dose: 512.0 mg/kg/injection, schedule: Q01DX009 (ip), vehicle: saline with Tween-80 279 % of control
inactive: dose: 8.0 mg/kg/injection, schedule: Q01DX009 (ip), vehicle: Klucel (hydroxypropylcellulose) (HPC) 118 % of control and 105 % of control | dose: 16.0 mg/kg/injection, schedule: Q01DX009 (ip), vehicle: Klucel (hydroxypropylcellulose) (HPC) 100 % of control and 111 % of control | [8] 100 % of control | dose: 32.0 mg/kg/injection, schedule: Q01DX009 (ip), vehicle: Klucel (hydroxypropylcellulose) (HPC) 118 % of control and 105 % of control | [10] 98 % of control | dose: 64.0 mg/kg/injection, schedule: Q01DX009 (ip), vehicle: Klucel (hydroxypropylcellulose) (HPC) 102 % of control and 111 % of control | dose: 128.0 mg/kg/injection, schedule: Q01DX009 (ip), vehicle: Klucel (hydroxypropylcellulose) (HPC) 121 % of control and 100 % of control | dose: 128.0 mg/kg/injection, schedule: Q01DX009 (ip), vehicle: saline with Tween-80 107 % of control | dose: 256.0 mg/kg/injection, schedule: Q01DX009 (ip), vehicle: Klucel (hydroxypropylcellulose) (HPC) 120 % of control and 110 % of control | dose: 256.0 mg/kg/injection, schedule: Q01DX009 (ip), vehicle: saline with Tween-80 98 % of control | dose: 512.0 mg/kg/injection, schedule: Q01DX009 (ip), vehicle: Klucel (hydroxypropylcellulose) (HPC) 124 % of control and 105 % of control

CC1(C)N=C(N)N=C(N)N1c1ccc(OCC(=O)N2CCOCC2)c(Cl)c1
inactive: [2] 88 % of control | [3] 111 % of control | [4] 100 % of control

CC1(C)N=C(N)N=C(N)N1c1ccc(CNC(=O)Nc2cccc(S(=O)(=O)F)c2)cc1
inactive: dose: 150.0 mg/kg/injection, schedule: Q04DX003 (ip), vehicle: saline 122 % of control | dose: 225.0 mg/kg/injection, schedule: Q04DX003 (ip), vehicle: saline 116 % of control

CNc1nc(N(C)C)nc(N(C)C)n1
inactive: [7] 99 % of control | [1] 101 % of control and 111 % of control | [9] 103 % of control | [11] 106 % of control | dose: 64.0 mg/kg/injection, schedule: Q01DX009 (ip), vehicle: saline 118 % of control
